In US5776919A, “Potentiators of antimicrobial activity” (priority 1996, dated 1998):
In brackets after ≈: the same amount, converted by molar mass. Several values for one entry are separate records, joined by “and”; a condition that tells them apart may be missing. Equal entries are not always repeated. Where two headings read alike, the source gives them in different places.

How the values were obtained:
Type in all cases: cell-based
[1] = test system: methicillin-resistant Staphylococcus aureus (ATCC 33591); experiment: MIC determination by broth dilution
Procedure: (§1) The MICs were determined by the broth dilution method. […] The assays were performed in duplicate.

[2] = test system: Pseudomonas aeruginosa (ATCC 10145); experiment: MBC determination
Procedure: (§2) After 24 hours of incubation, the colonies were counted.

[3] = test system: methicillin-resistant Staphylococcus aureus (ATCC 33591); experiment: MBC determination
Procedure: as §2

[4] = test system: Escherichia coli (ATCC 10536); experiment: MBC determination
Procedure: as §2

[5] = test system: Pseudomonas aeruginosa (ATCC 10145); experiment: MIC determination by broth dilution
Procedure: as §1

[6] = test system: Escherichia coli (ATCC 10536); experiment: MIC determination by broth dilution
Procedure: as §1

[7] = test system: Candida albicans (ATCC 10231); experiment: MBC determination
Procedure: as §2

[8] = test system: Candida albicans (ATCC 10231); experiment: MIC determination by broth dilution
Procedure: as §1

[9] = Staphylococcus aureus, ATCC 33591 / MRSA, 48 h, compound alone, MRSA ATCC 33591, 2 days at 37° C., read-out: MIC
[10] = compound alone, MRSA ATCC 33591, 2 days at 37° C.
[11] = compound alone, P. aeruginosa (ATCC 10536 [sic])
[12] = compound alone, MRSA ATCC 33591
[13] = compound alone, E. coli ATCC 10536
[14] = compound alone, P. aeruginosa (ATCC 10536 [sic]), 2 days at 37° C.
[15] = compound alone, E. coli ATCC 10536, 2 days at 37° C.
[16] = compound alone, C. albicans ATCC 10231
[17] = compound alone, C. albicans ATCC 10231, 2 days at 37° C.

| Molecule | MIC [1, 9] [mg/L] | MIC [1, 10] [mg/L] | MBC [2, 11] [mg/L] | MBC [4, 13] [mg/L] | MIC [5, 14] [mg/L] | MIC [6, 15] | other results |
| --- | --- | --- | --- | --- | --- | --- | --- |
| CCCCCCCCCCCO [Undecanol, n-undecanol] | 50 (≈ 0.29 mM) | – | – | – | – | – | – |
| Anacardic Acid | – | 6.25 | – | – | – | – | – |
| C=CC/C=C\C/C=C\CCCCCCCc1cccc(O)c1C(=O)O [Anacardic Acid (15:3)] | – | 6.25 (≈ 0.0182 mM) | – | – | – | – | – |
| CCCCCCCCCCCCCO [Tridecanol, n-tridecanol] | 50 (≈ 0.25 mM) | – | – | – | – | – | – |
| CCC/C=C/C=O [2-Hexenal, t-2-hexenal] | – | 400 (≈ 4.08 mM) | 400 (≈ 4.08 mM) | 400 (≈ 4.08 mM) | 200 (≈ 2.04 mM) | 200 mg/L and 400 mg/L | MBC [3, 12]: 800 mg/L (≈ 8.15 mM) |
| COc1cccc(OC)c1C(=O)N[C@@H]1C(=O)N2[C@@H]1SC(C)(C)[C@@H]2C(=O)O [Methicillin, methicillin, reference compound] | 800 (≈ 2.1 mM) | – | – | – | – | – | – |
| polymyxin E [reference compound] | – | – | 12.5 | 6.25 | 6.25 | 3.13 mg/L | MBC [7, 16]: 1600 mg/L; MIC [8, 17]: 1600 mg/L |
| c1ccc2[nH]ccc2c1 [Indole, indole] | – | – | – | – | – | – | MBC ([2]; Pseudomonas aeruginosa, ATCC 10145 / ATCC 10536): 800 mg/L (≈ 6.83 mM); MBC ([3]; Staphylococcus aureus, ATCC 33591 / MRSA): 800 mg/L (≈ 6.83 mM); MBC ([4]; Escherichia coli, ATCC10536): 800 mg/L (≈ 6.83 mM); MBC ([7]; Candida albicans, ATCC10231): 800 mg/L (≈ 6.83 mM); MIC ([5]; Pseudomonas aeruginosa, ATCC 10145 / ATCC 10536, 48 h): 400 mg/L (≈ 3.41 mM); MIC ([1]; Staphylococcus aureus, ATCC 33591 / MRSA, 48 h): 800 mg/L (≈ 6.83 mM); MIC ([6]; Escherichia coli, ATCC10536, 48 h): 800 mg/L (≈ 6.83 mM); MIC ([8]; Candida albicans, ATCC10231, 48 h): 400 mg/L (≈ 3.41 mM) |
| CCCCCCCCCCCCO [Dodecanol, n-dodecanol] | 80 (≈ 0.429 mM) | – | – | – | – | – | – |
| polymyxin B [reference compound] | – | 800 | 6.25 | 3.13 | 6.25 | 3.13 mg/L | MBC [3, 12]: 800 mg/L; MBC [7, 16]: 1600 mg/L; MIC [8, 17]: 800 mg/L |
